Where “and” joins values, the source holds several entries; their conditions need not be identical. Equal values may be shown once.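 Five compound concentrations were applied to cells in 96-well plates for 48 hours; endpoints were derived by simple linear interpolation of the resulting dose-response curve. The concentration for 50% growth inhibition is given as GI50. TGI denotes the concentration required for complete inhibition of growth.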
Key:
Assay in all cases: NCI-60 cell line screen, 48 h
[1] = test system: HL-60(TB) leukemia
[2] = test system: OVCAR-4 ovarian
[3] = test system: MALME-3M melanoma
[4] = test system: U251 CNS
[5] = test system: CAKI-1 renal
[6] = test system: SK-MEL-28 melanoma
[7] = test system: KM12 colon
[8] = test system: LOX IMVI melanoma
[9] = test system: BT-549 breast
[10] = test system: PC-3 prostate

| SMILES | TGI [1] | TGI [2] | TGI [3] | TGI [4] [µM] | TGI [5] [µM] | TGI [6] | TGI [7] | TGI [8] | GI50 [9] [µM] | TGI [9] [µM] | GI50 [1] [µM] | GI50 [2] [µM] | GI50 [4] [µM] | GI50 [5] [µM] | GI50 [6] [µM] | GI50 [10] [µM] | TGI [10] [µM] | GI50 [7] [µM] | GI50 [3] [µM] | GI50 [8] [µM] |
| --- | --- | --- | --- | --- | --- | --- | --- | --- | --- | --- | --- | --- | --- | --- | --- | --- | --- | --- | --- | --- |
| Cc1cc(Br)cc(C)c1NC(=O)C(=O)C(C(=O)c1ccc2ccccc2c1)C1OC(=O)c2ccccc21 (stereo unspecified) | 30.2 µM | > 36.4 µM | 34.5 µM | 18.7 | 51.1 | 14.2 µM | 34 µM | 31.1 µM | – | – | – | – | – | – | – | – | – | – | – | – |
| CSc1nc2c(nc(C)c(=O)n2C2OCC(OC(C)=O)C(OC(C)=O)C2OC(C)=O)c(=O)[nH]1 (stereo unspecified) | > 100 µM | > 100 µM | > 100 µM | > 100 | > 100 | > 100 µM | > 100 µM | > 100 µM | – | – | – | – | – | – | – | – | – | – | – | – |
| O=C(Nc1nc2ncn(CCI)c2c(=O)[nH]1)c1ccccc1 | > 100 µM | > 100 µM | > 100 µM | > 96.5 | > 100 | > 100 µM | > 100 µM | > 100 µM | – | – | – | – | – | – | – | – | – | – | – | – |
| Clc1ccc2c(NCCCNc3nccc(Nc4ccc(Br)cc4)n3)ccnc2c1 | 4.94 µM | 2.75 µM | – | 2.94 | 3 | 3.15 µM | 3.36 µM | – | 1.68 | 3.4 | 2.13 | 1.39 | 1.52 | 1.53 | 1.65 | 1.74 | 3.56 | 1.82 | – | – |
| CCCCCCCCCC/C=C/CC(=O)SCCNC(=O)CCNC(=O)[C@@H](O)C(C)(C)COP(=O)(O)OP(=O)(O)OCC1OC(n2cnc3c(N)ncnc32)C(O)C1OP(=O)(O)O (stereo partly specified) | > 10 µM | > 10 µM | > 10 µM | > 10 | > 10 | > 10 µM | > 10 µM | > 10 µM | – | – | – | – | – | – | – | – | > 10 | – | – | – |
| O=[N+]([O-])c1nccn1CC(O)c1ccc(F)cc1 (stereo unspecified) | > 100 µM | > 100 µM | > 100 µM | > 100 | > 100 | > 100 µM | > 100 µM | > 100 µM | – | – | – | – | – | – | – | – | – | – | – | – |
| Cc1ccc(S(=O)(=O)NCC2CCCCC2=O)cc1 (stereo unspecified) | > 100 µM | > 100 µM | > 100 µM | > 100 | 67.5 | > 100 µM | > 100 µM | > 100 µM | – | – | – | – | – | – | – | – | – | – | – | – |
| C=C(C=O)[C@@H]1C2OC(=O)C(=C)[C@@H]2CC(O)[C@@]1(C)CC (stereo partly specified) | 5.92 µM | > 30.2 µM | 18.7 µM | 32.4 | 24 | 12.5 µM | 37.2 µM | 34.7 µM | – | – | – | – | – | – | – | – | – | – | – | – |
| O=C1CN=C(C[N+](=O)[O-])c2ccccc21 | > 100 µM | > 100 µM | > 100 µM | > 100 | > 100 | > 100 µM | > 100 µM | – | – | – | – | – | – | – | – | – | – | – | – | – |
| CCCCOC(=O)C1C(c2ccc(Cl)cc2)NC(c2ccc(Cl)cc2)C(C(=O)OCCCC)S1(=O)=O (stereo unspecified) | > 100 µM | > 100 µM | > 100 µM | > 100 | > 100 | > 100 µM | > 100 µM | > 100 µM | – | – | – | – | – | – | – | – | – | – | – | – |
| Cc1c2cccnc2c(C)c2c1c1cc(CO)ccc1n2C | – | 10.5 µM | 7.82 µM | 11 | 10.5 | 10.9 µM | 17 µM | 4.82 µM | 3.42 | 20.1 | – | 2.82 | 1.93 | 2.06 | 3.01 | 2.67 | 33 | 2.33 | 1.93 | 1.5 |
| CC(C)(C)OC(=O)NCC(=O)OCc1ccccc1 | > 100 µM | – | > 100 µM | > 100 | – | > 100 µM | > 100 µM | > 100 µM | – | – | – | – | – | – | – | – | – | – | – | – |
| O=S(O)CCCCSSCC(O)C(O)CSSCCCCS(=O)O (stereo unspecified) | 53.9 µM and > 100 µM | 19.9 µM and 23.8 µM | 25.8 µM and 35.9 µM | > 100 | > 100 | 45.1 µM and > 100 µM | 36.4 µM and > 100 µM | 38.1 µM and 72.7 µM | – | – | – | – | – | – | – | – | – | – | – | – |
| O=C1c2ccccc2C(=O)C1(Cl)C1(S(=O)(=O)O)c2ccccc2-c2ccccc21 | > 100 µM | > 100 µM | > 100 µM | > 100 | > 100 | > 100 µM | > 100 µM | > 100 µM | – | – | – | – | – | – | – | – | – | – | – | – |
| CS(=O)(=O)N/N=C/CN1C(=O)c2ccccc2C1=O | > 100 µM | > 100 µM | > 100 µM | > 100 | > 100 | > 100 µM | > 100 µM | – | – | – | – | – | – | – | – | – | – | – | – | – |
| C=CC1CC12C(=O)C1OC2(C)C2C(=O)c3cc4ccccc4cc3C(=O)C12 (stereo unspecified) | 65.3 µM | – | 57.4 µM | 56.7 | 35.7 | > 100 µM | 58.7 µM | – | 25 | 62.6 | 24.7 | – | 21.1 | 12 | 24.7 | 20.3 | > 100 | 21.8 | 16.8 | – |
| CCOc1nc(-c2ccccc2)cc2c(O)c(-c3nnco3)[nH]c(=O)c12 | > 100 µM | – | > 100 µM | > 43.7 | > 100 | > 100 µM | > 100 µM | > 100 µM | 3.23 | > 100 | 5.86 | – | 4.41 | 4.15 | 30.9 | 4.3 | > 100 | 4.14 | 7.58 | 4.4 |
| CC(=O)O.CC(=O)O.CC(=O)O.CC(=O)O.CC(=O)O.CC(=O)O.O.[Ti].[Ti] | > 100 µM | > 100 µM | > 100 µM | > 100 | > 100 | > 100 µM | > 100 µM | > 100 µM | – | – | > 100 | > 100 | > 100 | > 100 | > 100 | – | – | > 100 | > 100 | > 100 |
| C=C(CCCCC)CN1CCCC1[C@@](C)(O)CC(=O)OCC (stereo partly specified) | > 100 µM | > 100 µM | > 100 µM | > 100 | > 100 | > 100 µM | > 100 µM | > 100 µM | – | – | – | – | – | – | – | – | – | – | – | – |
| CNC(=S)NC1CCCCC1NC(=S)NC (stereo unspecified) | > 100 µM | > 100 µM | > 100 µM | > 100 | > 100 | > 100 µM | > 100 µM | > 100 µM | – | – | – | – | – | – | – | – | – | – | – | – |
